Experimental data published in patent US20240158446A1, “CYCLIC COMPOUND HAVING SELECTIVE INHIBITORY ACTION ON KRAS OVER HRAS AND NRAS” (CHUGAI SEIYAKU KABUSHIKI KAISHA, priority 2021, published 2024).
*1 amine or outer side, *2 acyl side, *3 side chain or, on linkers, in order; H or OH if unused. Where a SMILES comes first, the peptide text is derived from it. Bridges are numbered along the chain shown (N, C = ends). [ ]: non-standard residue; d: D form. The star is where a group is joined. hPhe(3,5-F2-4-CF3) = N[C@@H](CCc1cc(F)c(C(F)(F)F)c(F)c1)C(=O)O; NPrPhe(4-CF3) = CCCN[C@@H](Cc1ccc(C(F)(F)F)cc1)C(=O)O; X29 = CN([C@@H](CCCC=[*:3])C(=O)[*:2])[*:1]; dαMeAlg = C[C@](CC=[*:3])(N[*:1])C(=O)[*:2]; NMeGly(cPent) = CN[C@H](C(=O)O)C1CCCC1; Hyp = O=C(O)[C@@H]1C[C@@H](O)CN1; NMeD = CN[C@@H](CC(=O)O)C(=O)O; Morpholide = C1CN(*)CCO1; Sar = CNCC(=O)O

Assays:
[1] = molecular target: GDP-bound KRAS wild-type protein (Homo sapiens, UniProt P01116); test: Binding to KRAS by surface plasmon resonance (SPR), Single Cycle Kinetics; conditions: SPR, Single Cycle Kinetics, GDP-bound KRAS wild-type protein; read-out: KRAS KD
Chain of GDP-bound KRAS wild-type protein (P01116 whole entry): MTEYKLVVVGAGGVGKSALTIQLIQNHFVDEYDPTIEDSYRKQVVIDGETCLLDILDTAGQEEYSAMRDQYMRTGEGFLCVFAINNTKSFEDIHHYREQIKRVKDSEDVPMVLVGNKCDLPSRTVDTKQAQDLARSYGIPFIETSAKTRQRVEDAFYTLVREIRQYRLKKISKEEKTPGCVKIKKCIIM

[2] = molecular target: GDP-bound NRAS wild-type protein (Homo sapiens, UniProt P01111); test: Binding to NRAS by surface plasmon resonance (SPR), Single Cycle Kinetics; conditions: SPR, GDP-bound NRAS wild-type protein vs GDP-bound KRAS wild-type protein
Chain of GDP-bound NRAS wild-type protein (P01111 whole entry): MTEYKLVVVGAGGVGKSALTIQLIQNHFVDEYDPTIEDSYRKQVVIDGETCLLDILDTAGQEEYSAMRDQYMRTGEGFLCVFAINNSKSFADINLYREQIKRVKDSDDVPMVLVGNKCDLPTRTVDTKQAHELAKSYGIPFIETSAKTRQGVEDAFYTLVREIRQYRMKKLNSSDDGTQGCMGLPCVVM

[3] = molecular target: GDP-bound HRAS wild-type protein (Homo sapiens, UniProt P01112); test: Binding to HRAS by surface plasmon resonance (SPR), Single Cycle Kinetics; conditions: SPR, GDP-bound HRAS wild-type protein vs GDP-bound KRAS wild-type protein
Chain of GDP-bound HRAS wild-type protein (P01112 whole entry): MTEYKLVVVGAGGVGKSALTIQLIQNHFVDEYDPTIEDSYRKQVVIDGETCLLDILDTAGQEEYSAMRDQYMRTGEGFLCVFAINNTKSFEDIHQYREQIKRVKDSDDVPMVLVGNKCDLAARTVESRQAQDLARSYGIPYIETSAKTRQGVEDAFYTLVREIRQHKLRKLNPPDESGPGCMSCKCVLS

| SMILES | Kd [1] [nM] | NRAS/KRAS (ratio of KD value for NRAS to KD value for KRAS) [2] | HRAS/KRAS (ratio of KD value for HRAS to KD value for KRAS) [3] |
| --- | --- | --- | --- |
| CCCN1C(=O)CN(C)C(=O)CN(C)C(=O)[C@H]([C@@H](C)CC)NC(=O)[C@@H]2CCCC=CC[C@@](C)(NC(=O)[C@@H]3C[C@@H](OCC)CN3C(=O)[C@H](CCc3cc(F)c(C(F)(F)F)c(F)c3)NC(=O)CN(C)C(=O)[C@@H]1Cc1ccc(C(F)(F)F)cc1)C(=O)N(C)[C@@H](C1CCCC1)C(=O)N(C)[C@H](C(=O)N1CCOCC1)CC(=O)N2C [PP0901] ([X29]I[Sar][Sar][NPrPhe(4-CF3)][Sar][hPhe(3,5-F2-4-CF3)][Hyp](Et)[dαMeAlg][NMeGly(cPent)][NMeD]-Morpholide; staple 1-9; lactam N-11) | 3 | B (a compound having 3 or more and less than 10 is denoted as B) | B (a compound having 3 or more and less than 10 is denoted as B) |
| CCO[C@@H]1C[C@H]2C(=O)NC3(CCC3)C(=O)N(C)[C@@H](C3CCCC3)C(=O)N(C)[C@H](C(=O)N(C)C)CC(=O)N(C)[C@@H](CC)C(=O)N[C@@H]([C@@H](C)CC)C(=O)N(C)CC(=O)N(C)[C@H]3CCCCCN(C3=O)[C@@H](Cc3ccc(F)c(Cl)c3)C(=O)N(C)CC(=O)N[C@@H](CCc3cc(F)c(C(F)(F)F)c(F)c3)C(=O)N2C1 [PP0909] | 0.48 | B (a compound having 3 or more and less than 10 is denoted as B) | B (a compound having 3 or more and less than 10 is denoted as B) |
| CCO[C@@H]1C[C@H]2C(=O)NC3(CCC3)C(=O)N(C)[C@@H](C3CCCC3)C(=O)N(C)[C@H](C(=O)N(C)C)CC(=O)N(C)[C@@H](CC)C(=O)N[C@@H]([C@@H](C)CC)C(=O)N(C)CC(=O)N(C)[C@H]3CCCCCN(C3=O)[C@@H](Cc3ccc(F)cc3C)C(=O)N(C)CC(=O)N[C@@H](CCc3cc(F)c(C(F)(F)F)c(F)c3)C(=O)N2C1 [PP0911] | 0.06 | B (a compound having 3 or more and less than 10 is denoted as B) | B (a compound having 3 or more and less than 10 is denoted as B) |
| CCO[C@@H]1C[C@H]2C(=O)NC3(CCC3)C(=O)N(C)[C@@H](C3CCCC3)C(=O)N(C)[C@H](C(=O)N(C)C)CC(=O)N(C)[C@@H](CC)C(=O)N[C@@H]([C@@H](C)CC)C(=O)N(C)CC(=O)N(C)[C@H]3CCCCCN(C3=O)[C@@H](Cc3ccc(F)cc3OC)C(=O)N(C)CC(=O)N[C@@H](CCc3cc(F)c(C(F)(F)F)c(F)c3)C(=O)N2C1 [PP0914] | 0.43 | B (a compound having 3 or more and less than 10 is denoted as B) | B (a compound having 3 or more and less than 10 is denoted as B) |
| CCO[C@@H]1C[C@H]2C(=O)NC3(CCC3)C(=O)N(C)[C@@H](C3CCCC3)C(=O)N(C)[C@H](C(=O)N(C)C)CC(=O)N(C)[C@@H](CC)C(=O)N[C@@H]([C@@H](C)CC)C(=O)N(C)CC(=O)N(C)[C@H]3CCCCCN(C3=O)[C@@H](Cc3ccc(F)c(OC)c3)C(=O)N(C)CC(=O)N[C@@H](CCc3cc(F)c(C(F)(F)F)c(F)c3)C(=O)N2C1 [PP0915] | 0.14 | B (a compound having 3 or more and less than 10 is denoted as B) | B (a compound having 3 or more and less than 10 is denoted as B) |
| CCO[C@@H]1C[C@H]2C(=O)NC3(CCC3)C(=O)N(C)[C@@H](C3CCCC3)C(=O)N(C)[C@H](C(=O)N3CCOCC3)CC(=O)N(C)[C@@H](CC(C)C)C(=O)N[C@@H]([C@@H](C)CC)C(=O)N(C)CC(=O)N(C)[C@H]3CCCCCN(C3=O)[C@@H](Cc3ccc(F)cc3Cl)C(=O)N(C)CC(=O)N[C@@H](CCc3cc(F)c(C(F)(F)F)c(F)c3)C(=O)N2C1 [PP0918] | 0.4 | B (a compound having 3 or more and less than 10 is denoted as B) | B (a compound having 3 or more and less than 10 is denoted as B) |
| CCO[C@@H]1C[C@H]2C(=O)NC3(CCC3)C(=O)N(C)[C@@H](C3CCCC3)C(=O)N(C)[C@H](C(=O)N3CCOCC3)CC(=O)N(C)[C@@H](CC(C)C)C(=O)N[C@@H]([C@@H](C)CC)C(=O)N(C)CC(=O)N(C)[C@H]3CCCCCN(C3=O)[C@@H](Cc3ccc(F)c(Cl)c3)C(=O)N(C)CC(=O)N[C@@H](CCc3cc(F)c(C(F)(F)F)c(F)c3)C(=O)N2C1 [PP0919] | 0.81 | B (a compound having 3 or more and less than 10 is denoted as B) | B (a compound having 3 or more and less than 10 is denoted as B) |
| CCO[C@@H]1C[C@H]2C(=O)NC3(CCC3)C(=O)N(C)[C@@H](C3CCCC3)C(=O)N(C)[C@H](C(=O)N3CCOCC3)CC(=O)N(C)[C@@H](CC(C)C)C(=O)N[C@@H]([C@@H](C)CC)C(=O)N(C)CC(=O)N(C)[C@H]3CCCCCN(C3=O)[C@@H](Cc3ccc(F)c(C)c3)C(=O)N(C)CC(=O)N[C@@H](CCc3cc(F)c(C(F)(F)F)c(F)c3)C(=O)N2C1 [PP0922] | 0.5 | B (a compound having 3 or more and less than 10 is denoted as B) | B (a compound having 3 or more and less than 10 is denoted as B) |
| CCO[C@@H]1C[C@H]2C(=O)NC3(CCC3)C(=O)N(C)[C@@H](C3CCCC3)C(=O)N(C)[C@H](C(=O)N3CCOCC3)CC(=O)N(C)[C@@H](CC(C)C)C(=O)N[C@@H]([C@@H](C)CC)C(=O)N(C)CC(=O)N(C)[C@H]3CCCCCN(C3=O)[C@@H](Cc3ccc(F)cc3OC)C(=O)N(C)CC(=O)N[C@@H](CCc3cc(F)c(C(F)(F)F)c(F)c3)C(=O)N2C1 [PP0924] | 0.82 | B (a compound having 3 or more and less than 10 is denoted as B) | B (a compound having 3 or more and less than 10 is denoted as B) |
| CCO[C@@H]1C[C@H]2C(=O)NC3(CCC3)C(=O)N(C)[C@@H](C3CCCC3)C(=O)N(C)[C@H](C(=O)N3CCOCC3)CC(=O)N(C)[C@@H](Cc3ccccc3F)C(=O)N[C@@H]([C@@H](C)CC)C(=O)N(C)CC(=O)N(C)[C@H]3CCCCCN(C3=O)[C@@H](Cc3ccc(C(F)(F)F)cc3)C(=O)N(C)CC(=O)N[C@@H](CCc3cc(F)c(C(F)(F)F)c(F)c3)C(=O)N2C1 [PP0926] | 2.4 | B (a compound having 3 or more and less than 10 is denoted as B) | B (a compound having 3 or more and less than 10 is denoted as B) |
| CCO[C@@H]1C[C@H]2C(=O)NC3(CCC3)C(=O)N(C)[C@@H](C3CCCC3)C(=O)N(C)[C@H](C(=O)N3CCOCC3)CC(=O)N(C)[C@@H](Cc3ccc(F)c(F)c3)C(=O)N[C@@H]([C@@H](C)CC)C(=O)N(C)CC(=O)N(C)[C@H]3CCCCCN(C3=O)[C@@H](Cc3ccc(C(F)(F)F)cc3)C(=O)N(C)CC(=O)N[C@@H](CCc3cc(F)c(C(F)(F)F)c(F)c3)C(=O)N2C1 [PP0928] | 1 | A (a compound having 10 or more and less than 20 is denoted as A) | B (a compound having 3 or more and less than 10 is denoted as B) |
| CCO[C@@H]1C[C@H]2C(=O)NC3(CCC3)C(=O)N(C)[C@@H](C3CCCC3)C(=O)N(C)[C@H](C(=O)N3CCOCC3)CC(=O)N(C)[C@@H](Cc3ccccc3Cl)C(=O)N[C@@H]([C@@H](C)CC)C(=O)N(C)CC(=O)N(C)[C@H]3CCCCCN(C3=O)[C@@H](Cc3ccc(C(F)(F)F)cc3)C(=O)N(C)CC(=O)N[C@@H](CCc3cc(F)c(C(F)(F)F)c(F)c3)C(=O)N2C1 [PP0929] | 2.7 | A (a compound having 10 or more and less than 20 is denoted as A) | B (a compound having 3 or more and less than 10 is denoted as B) |
| CCO[C@@H]1C[C@H]2C(=O)NC3(CCC3)C(=O)N(C)[C@@H](C3CCCC3)C(=O)N(C)[C@H](C(=O)N3CCOCC3)CC(=O)N(C)[C@@H](Cc3ccccc3C)C(=O)N[C@@H]([C@@H](C)CC)C(=O)N(C)CC(=O)N(C)[C@H]3CCCCCN(C3=O)[C@@H](Cc3ccc(C(F)(F)F)cc3)C(=O)N(C)CC(=O)N[C@@H](CCc3cc(F)c(C(F)(F)F)c(F)c3)C(=O)N2C1 [PP0931] | 1.9 | A (a compound having 10 or more and less than 20 is denoted as A) | B (a compound having 3 or more and less than 10 is denoted as B) |
| CCO[C@@H]1C[C@H]2C(=O)NC3(CCC3)C(=O)N(C)[C@@H](C3CCCC3)C(=O)N(C)[C@H](C(=O)N3CCOCC3)CC(=O)N(C)[C@@H](Cc3ccc(C)cc3)C(=O)N[C@@H]([C@@H](C)CC)C(=O)N(C)CC(=O)N(C)[C@H]3CCCCCN(C3=O)[C@@H](Cc3ccc(C(F)(F)F)cc3)C(=O)N(C)CC(=O)N[C@@H](CCc3cc(F)c(C(F)(F)F)c(F)c3)C(=O)N2C1 [PP0933] | 1.6 | A (a compound having 10 or more and less than 20 is denoted as A) | B (a compound having 3 or more and less than 10 is denoted as B) |
